The text below walks through data of patent publication US6900193B1, “Structural modification of 19-norprogesterone I: 17-α-substituted-11-β-substituted-4-aryl and 21-substituted 19-norpregnadienedione as new antiprogestational agents” (The United States of America as represented by the …, priority 1996, dated 2005).

For assay [1], the target named is T1, progesterone receptor (estrogen-primed rabbit uterus) (Oryctolagus cuniculus, UniProt P06186).
T1 construct: preparation of cytosols for the progesterone and glucocorticoid receptor assays; from tissue; host or cells: uterus of estradiol-primed immature female New Zealand White rabbits (cytosol)
T1 sequence (P06186 1-930): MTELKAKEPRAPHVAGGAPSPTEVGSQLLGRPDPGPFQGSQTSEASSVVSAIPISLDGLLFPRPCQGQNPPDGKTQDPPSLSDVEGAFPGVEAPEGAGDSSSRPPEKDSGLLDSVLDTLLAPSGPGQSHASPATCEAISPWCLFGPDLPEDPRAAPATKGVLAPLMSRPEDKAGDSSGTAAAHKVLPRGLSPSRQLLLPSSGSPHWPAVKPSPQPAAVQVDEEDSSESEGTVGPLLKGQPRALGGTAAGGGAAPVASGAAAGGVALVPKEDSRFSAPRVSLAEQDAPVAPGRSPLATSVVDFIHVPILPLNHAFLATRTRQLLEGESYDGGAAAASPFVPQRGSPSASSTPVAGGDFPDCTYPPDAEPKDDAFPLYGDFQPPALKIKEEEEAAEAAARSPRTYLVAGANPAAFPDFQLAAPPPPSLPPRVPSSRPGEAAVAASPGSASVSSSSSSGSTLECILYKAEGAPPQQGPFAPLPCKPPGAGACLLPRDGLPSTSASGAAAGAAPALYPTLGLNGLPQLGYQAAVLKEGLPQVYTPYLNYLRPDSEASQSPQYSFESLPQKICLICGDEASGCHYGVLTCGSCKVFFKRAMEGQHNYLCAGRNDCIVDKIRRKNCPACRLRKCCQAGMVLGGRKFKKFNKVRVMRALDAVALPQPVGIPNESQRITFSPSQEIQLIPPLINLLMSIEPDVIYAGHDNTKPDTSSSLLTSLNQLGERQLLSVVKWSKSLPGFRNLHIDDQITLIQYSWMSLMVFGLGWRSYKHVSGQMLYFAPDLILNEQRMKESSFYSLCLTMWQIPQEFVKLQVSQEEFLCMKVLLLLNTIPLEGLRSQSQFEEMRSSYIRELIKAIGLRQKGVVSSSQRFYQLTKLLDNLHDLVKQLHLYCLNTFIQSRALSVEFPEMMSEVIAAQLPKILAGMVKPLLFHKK
In words: Relative binding affinity, progesterone receptor. To be noted: for BINDING AFFINITY Progester: Table 2; for binding affinities compared with the standard, compound 69B: progesterone receptor implied (rabbit or human isoform A not specified). The method, then: (§1) Relative Binding Affinities for the Progesterone and Glucocorticoid Receptors
(§2) Uteri and thymus glands were obtained from estradiol-primed immature female rabbits of the New Zealand White strain for preparation of cytosols for the progesterone and glucocorticoid receptor assays, respectively. Tissues were excised and immediately placed in ice cold TEGDM buffer (10 mM Tris, pH 7.4; 1.5 mM EDTA; 10% glycerol vol/vol/; 1 mM dithiothreitol [DTT]; and 20 mM sodium molybdate). The tissues were dissected free of connective tissue and fat, weighed and minced finely. Minced tissues were homogenized in 3 volumes TEGDM/gm with four 10 second bursts of a VirTis Cyclone set at half maximum speed with a 30 second cooling period (in ice) between bursts. Homogenates were centrifuged at 109,663 g at 4° C. for 1 hour to yield the soluble cytosol fiction. Aliquots of cytosol were snap frozen and stored at −75° C.
(§3) All binding assays were carried out at 2-6° C. for 16-18 hours. The following radioactive ligands were used: [1,2-^3H(N)]-progesterone (50.0 Ci/mmole) for the progesterone receptor (PR). […] For the progesterone receptor RBA assays 0.02 ml uterine cytosol or TEDGM buffer, 0.05 ml of various concentrations of test compounds or progesterone, 0.13 ml TEGDM buffer and 0.05 ml [^3H]-progesterone were added to duplicate tubes. For the glucocorticoid receptor RBA assays 0.1 ml thymus cytosol or TEDGM buffer, 0.05 ml of various concentrations of test compounds or dexamethasone, 0.05 ml TEGDM buffer and 0.05 ml [3H]-dexamethasone were added to duplicate tubes. For the estrogen receptor RBA assays 0.05 ml uterine cytosol, 0.1 ml TEGDM buffer, 0.05 ml of various concentrations of test compounds or estradiol and 0.05 ml [^3H]-estradiol were added to duplicate tubes. The concentrations of the test compounds, progesterone, dexamethasone and estradiol ranged from 0.05 to 100 nM and the concentrations of the competitors ranged from 0.5 to 500 nM. Total binding was measured at radioligand concentrations of 3.5 nM and nonspecific binding was measured in the presence of a 200-fold excess of unlabeled progesterone (PR), dexamethasone (GR) or diethylstilbestrol (ER), respectively.
(§4) In all incubations bound and free ligand were separated using dextra-coated charcoal (DCC). A 0.1 ml aliquot of DCC (0.5% charcoal/0.05% Dextran T-70) was added to each tube. The tubes were vortexed and incubated on ice for 10 minutes. Five-tenths ml TEG buffer (without DTT or molybdate) was then added to all tubes to improve supernatant recovery following centrifugation. The charcoal was pelleted by centrifugation at 2,100 g for 15 minutes at 4° C. The supernatants containing the [^3H]-steroid receptor complexes were decanted into vials containing 4 ml Optifluor (Packard Instrument Co.), vortexed, equilibrated in a liquid scintillation counter for 30 minutes and then counted for 2 minutes. This provided the quantity of receptor bound [^3H]-steroid at each competitor concentration.

For assay [2], the system named is progesterone-induced endometrial proliferation. In words: AntiClauberg test. The class given is in vivo, rabbit. More on the design: key to ANTIPROGESTATIONAL Anti-Clauberg: relative oral potency vs. reference compound set to 100. To be noted: for BIOLOGICAL ACTIVITY antiClauberg: Table 2; for antiClauberg / oral antiprogestational activity, in words: versus the standard 69B. The method, then: AntiClauberg Test (Clauberg, C., Zentr. Gynakol., 54:2757-2770 (1930)) Immature female rabbits of the New Zealand White breed (approx. 1 kg body weight) were maintained under standard laboratory conditions and received a subcutaneous injection of 5 μg estradiol in 10% ethanol/sesame oil daily for 6 consecutive days. Twenty-four hours after the last dose of estradiol (day 7) animals received progesterone by subcutaneous injection (0.8 mg/day) and the experimental compound in appropriate vehicle (usually 10% ethanol/sesame oil) orally or subcutaneously for five consecutive days. One group of rabbits received progesterone only. Twenty-four hours after the last dose all animals were sacrificed for removal of the uterus which was cleaned of all fat and connective tissue, weighed to the nearest 0.2 mg and placed in 10% neutral buffered formalin for subsequent histological processing. Five micron sections stained with hematoxylin and eosin (H&E) were evaluated microscopically for the degree of endometrial glandular proliferation according to the method of McPhail (McPhail, supra). The percent inhibition of endometrial proliferation at each dose level of the experimental compound was derived by comparison with the progesterone-stimulated animals alone.

Assay [3] deals with T2, glucocorticoid receptor (estrogen-primed rabbit thymus) (Oryctolagus cuniculus, UniProt P59667).
T2 construct: preparation of cytosols for the progesterone and glucocorticoid receptor assays; from tissue; host or cells: thymus of estradiol-primed immature female New Zealand White rabbits (cytosol)
T2 sequence (P59667 1-772): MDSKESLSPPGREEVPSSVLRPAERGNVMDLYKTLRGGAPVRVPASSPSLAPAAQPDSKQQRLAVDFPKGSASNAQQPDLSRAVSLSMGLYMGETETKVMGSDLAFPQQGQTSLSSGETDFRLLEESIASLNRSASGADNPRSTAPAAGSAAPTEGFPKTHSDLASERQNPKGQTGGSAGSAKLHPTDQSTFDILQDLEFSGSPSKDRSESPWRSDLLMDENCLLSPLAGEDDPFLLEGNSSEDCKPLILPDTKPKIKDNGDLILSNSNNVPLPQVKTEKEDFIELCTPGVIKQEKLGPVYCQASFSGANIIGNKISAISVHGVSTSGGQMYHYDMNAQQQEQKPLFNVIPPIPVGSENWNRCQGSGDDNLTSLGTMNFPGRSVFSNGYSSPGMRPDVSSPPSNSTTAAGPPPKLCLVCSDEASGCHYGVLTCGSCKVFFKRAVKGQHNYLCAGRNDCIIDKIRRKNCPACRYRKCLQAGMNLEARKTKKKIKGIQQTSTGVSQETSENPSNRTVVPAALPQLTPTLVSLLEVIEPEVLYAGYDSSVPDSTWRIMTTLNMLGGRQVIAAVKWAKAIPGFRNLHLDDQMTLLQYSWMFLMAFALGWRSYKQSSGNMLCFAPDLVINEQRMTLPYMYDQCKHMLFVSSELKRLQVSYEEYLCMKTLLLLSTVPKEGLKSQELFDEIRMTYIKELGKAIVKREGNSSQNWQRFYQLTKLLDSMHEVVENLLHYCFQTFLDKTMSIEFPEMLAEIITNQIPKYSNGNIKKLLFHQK
The assay can be described thus: Relative binding affinity, glucocorticoid receptor. To be noted: for BINDING AFFINITY Glucocortic: Table 2. On the procedure: as §1, §2, §3, §4

Where [4] appears, read: estrogen-primed rabbit uterus, progesterone = 100%.
Setting [5] is: oral, CDB-2914 = 100 (assigned).
The mark [6] stands for this setting: estrogen-primed rabbit thymus, dexamethasone = 100%.

In the case of `C=COCC(=O)[C@@]1(OC(C)=O)CCC2C3CCC4=CC(=O)CCC4=C3C(c3ccc(N(C)C)cc3)C[C@@]21C` (stereo partly drawn) [Compound 129, 17α-Acetoxy-11β-[4-(N,N-dimethylamino)phenyl]-21-(1′-ethenyloxy)-19-norpregna-4,9-diene-3,20-dione], in assay [1] (setting [4]), the “BINDING AFFINITY Progester” value was 155%. Moreover, the “binding affinities compared with the standard, compound 69B” value in assay [1] is listed as “binding affinities greater than that observed for the standard”. Further, the “BIOLOGICAL ACTIVITY antiClauberg” value in assay [2] (setting [5]) came out at 303. Also, the “antiClauberg / oral antiprogestational activity, in words” value in assay [2] (oral) is listed as “greater activity than the standard”. Moreover, in assay [3] (setting [6]), the “BINDING AFFINITY Glucocortic” value is 20%. Besides, the “binding affinity for the glucocorticoid receptor, in words” value in assay [3] (rabbit thymus, versus CDB-2914 (69B) where stated) is listed as “low binding affinity”.

As for `CC(=O)O[C@]1(C(C)=O)CC[C@H]2[C@@H]3CCC4=CC(=O)CCC4=C3[C@@H](c3ccc(N4CCCC4)cc3)C[C@@]21C` [Compound 70, 17α-Acetoxy-11β-[4-(N-pyrrolidino)phenyl]-19-norpregna-4,9-diene-3,20-dione], the “BINDING AFFINITY Progester” value in assay [1] (setting [4]) worked out at 79%. For the same compound, the “BIOLOGICAL ACTIVITY antiClauberg” value in assay [2] (setting [5]) is recorded as “˜25”.

As to `CC(=O)C1(OC=O)CCC2C3CCC4=CC(=O)CCC4=C3C(c3ccc(N(C)C)cc3)CC21C` (stereo not drawn) [Compound 69A, 17α-formyloxy-11β-[4-(N,N-dimethylamino)phenyl]-19-norpregna-4,9-diene-3,20-dione], the “BINDING AFFINITY Progester” value in assay [1] (setting [4]) is on record as 164%. Moreover, the “binding affinities compared with the standard, compound 69B” value in assay [1] is “binding affinities greater than that observed for the standard”. Further, in assay [2] (setting [5]), the “BIOLOGICAL ACTIVITY antiClauberg” value worked out at 97. The “BINDING AFFINITY Glucocortic” value in assay [3] (setting [6]) was found to be 30%.

As for `COCC(=O)C1(OC)CCC2C3CCC4=CC(=O)CCC4=C3C(c3ccc(C(C)=O)cc3)CC21C` (stereo not drawn) [Compound 113d, 17α,21-Dimethoxy-11β-(4-acetylphenyl)-19-norpregna-4,9-diene-3,20-dione], in assay [1], the “binding affinities compared with the standard, compound 69B” value is given as “binding affinities greater than that observed for the standard”.

On to `CC(=O)O[C@]1(C(=O)COC(=O)CCC2CCCC2)CC[C@H]2[C@@H]3CCC4=CC(=O)CCC4=C3[C@@H](c3ccc(N(C)C)cc3)C[C@@]21C` [Compound 40, 17α-acetoxy-21-(3′-cyclopentylpropionyloxy)-11β-[4-(N,N-dimethylamino)phenyl]-19-norpregnadiene-3,20 dione], for which, in assay [1] (setting [4]), the “RELATIVE BINDING AFFINITY Progesterone” value is given as 74%. Moreover, the “ANTIPROGESTATIONAL Anti-Clauberg” value in assay [2] (oral, relative potency, CDB-2914 = 100 (assigned)) is 155. In addition, in assay [2] (oral), the “antiClauberg / oral antiprogestational activity, in words” value is “greater activity than the standard”. For the same compound, the “more potent in the antiClauberg test than the lead compound” value in assay [2] (versus CDB-2914) is “about 50%”. The “RELATIVE BINDING AFFINITY Glucocorticoid” value in assay [3] (setting [6]) stood at 37%.

`COCC(=O)C1(OC)CCC2C3CCC4=CC(=O)CCC4=C3C(c3ccc(N4CCCCC4)cc3)CC21C` (stereo not drawn) [Compound 113c, 17α,21-Dimethoxy-11β-[4-(N-piperidino)phenyl]-19-norpregna-4,9-diene-3,20-dione]: the “BINDING AFFINITY Progester” value in assay [1] (setting [4]) stood at 63%. In addition, the “BIOLOGICAL ACTIVITY antiClauberg” value in assay [2] (setting [5]) was found to be 70. Further, in assay [3] (setting [6]), the “BINDING AFFINITY Glucocortic” value turned out to be 45%.

Turning to `COCC(=O)OCC(=O)[C@@]1(OC(C)=O)CC[C@H]2[C@@H]3CCC4=CC(=O)CCC4=C3[C@@H](c3ccc(N(C)C)cc3)C[C@@]21C` [Compound 126b], the “BINDING AFFINITY Progester” value in assay [1] (setting [4]) was 76%. In addition, the “BIOLOGICAL ACTIVITY antiClauberg” value in assay [2] (setting [5]) was 125. For the same compound, in assay [2] (oral), the “antiClauberg / oral antiprogestational activity, in words” value is reported as “greater activity than the standard”. For the same compound, in assay [3] (setting [6]), the “BINDING AFFINITY Glucocortic” value came out at 15%.

With `COCC(=O)C1(OC)CCC2C3CCC4=CC(=O)CCC4=C3C(c3ccc(N4CCCC4)cc3)CC21C` (centres unmarked) [Compound 113b], in assay [1] (setting [4]), the “BINDING AFFINITY Progester” value is recorded as 59%. Moreover, the “BINDING AFFINITY Glucocortic” value in assay [3] (setting [6]) is reported as 34%.

Regarding `CC(=O)OC1(C(C)=O)CCC2C3CCC4=CC(=O)CCC4=C3C(c3ccc(C(C)=O)cc3)CC21C` (stereo not drawn) [Compound 73, 17α-Acetoxy-11β-(4-acetylphenyl)-19-norpregna-4,9-diene-3,20-dione], in assay [1], the “binding affinities compared with the standard, compound 69B” value is reported as “binding affinities greater than that observed for the standard”.

Take `COCC(=O)C1(O)CCC2C3CCC4=CC(=O)CCC4=C3C(c3ccc(C(C)=O)cc3)CC21C` (stereo not drawn) [Compound 122b, 17α-Hydroxy-11β-(4-acetylphenyl)-21-methoxy-19-norpregna-4,9-diene-3,20-dione]: the “binding affinities compared with the standard, compound 69B” value in assay [1] is listed as “binding affinities greater than that observed for the standard”.
